# Results reported in patent US8329678B1, “Antiinflammatory compound” (priority 2011, dated 2012).
# Key:
# [1] = tested on: PHA-activated T-cell proliferation; experiment: PHA-activated T-cell proliferation assay (3H-thymidine incorporation); format: cell-based, human
# Method: The T-cell proliferation assay was performed as described by Nielson et al. (19). In this assay, isolated lymphocytes were stimulated by adding the phytohemagglutinin (PHA) in culture. The rate of proliferation and survival was measured by radiolabelled thymidine incorporation method. The lymphocytes were isolated as described by Boyum (20). A 50 μL of cell suspension (10^6/mL) was added to each well of a 96-well round bottom tissue culture plate. 50 μL of PHA was added in each well from the working solution (20 μg/mL) to have final concentration 5 μg/mL. The final volume was adjusted to 200 μL in each well by adding complete RPMI media. The plates were incubated at 37° C. for 72 hours (90% humidity, 5% CO2/air). Methyl-^3H thymidine (Amersham Pharmacia Biotech) 0.5 μCi was added in each well and incubated for further 18 hours. Cells were harvested on a filter mat (Type G-7) using cell harvester (INOTECH IH-280, Switzerland) and the radioactivity (CPM) was measured using a β-scintillation counter (LS 6500, Beckman Coulter, USA). (FIG. 2A)
# [2] = tested on: IL-2 production from peripheral blood mononuclear cells; experiment: IL-2 cytokine production by PHA-activated PBMC (ELISA); format: cell-based, human
# Method: IL-2 cytokine was produce from peripheral blood mononuclear cells (PBMC). IL-2 cytokine production by PHA activated cells in the presence or absence of test compounds was studied by ELISA using the human cytokine kit (Diaclone, Besancon Cedex France). Briefly, freshly prepared mononuclear cells (10^5/well) were cultured in 96-well microtiter flat bottom plate in the presence or absence of 5 μg/mL PHA. Four different concentrations (10.33-331.13 μM/mL) of compounds, along with PHA, were used in this assay. The culture plate was incubated at 37° C. for 18 h. Then the supernatant was collected and analyzed for IL-2 cytokine production following kit manufacturer instructions.
# [3] = tested on: human lung cancer cell line (NCI-H460); experiment: Sulforhodamine B (SRB) growth inhibition assay; format: cell-based; details: for TGI (μM), could not be determined: NCI-H460, maximum dose 100 μM
# Method: The sulforhodamine B (SRB) protein-staining assay was employed for measurement of in vitro growth inhibition and cytotoxicity (21) The appropriate cell density (cells/well) of NCI-H460 cells (1×10^4) was added in 96-well plates. The cell density used was dependent on the doubling time of the cell line leading to the formation of monolayer. After 24 h incubation, different doses of Compounds 1-3 were added and incubated for further 48 h. This was followed by fixation of cells with ice-cold trichloroacetic acid (50 μl, 50%) at room temperature for 30 min. The plates were carefully washed five times with distilled water, and left for overnight drying in air. Sulforhodamine B dye (100 μl, 0.4% in 1% acetic acid) was introduced in each well and after 30 min residual dye was removed using acetic acid (1%) and air-dried overnight. The bound SRB dye was solubilized in Tris-base solution (100 μl, 10 mM) with gentle shaking on a plate-shaker for 5 min prior to optical density (OD) measurements at 545 nm in a plate reader. Drug concentrations causing growth inhibition (GI50) of 50% cells were calculated from dose response curves and total growth inhibition of Compound 2 was also evaluated.
# whole blood phagocytes = experiment: Luminol-enhanced chemiluminescence oxidative burst assay, whole blood; format: cell-based, human
# Source text: (§1) Heparinized blood was obtained by vein puncture aseptically from healthy volunteers (25-38 years age). The buffy coat containing PMNs was collected by dextran sedimentation and the cells were isolated after the LSM density gradient centrifugation from the tube base. Cells were washed twice and suspended in Hank's Balance Salt Solution (Ca^2+ and Mg^2+ free) (HBSS^−−), pH 7.4. Neutrophils were purified from RBCs contamination using hypotonic solution. Cells were adjusted to their required concentration using Hank's Balance Salt Solution containing Ca^2+ and Mg^2+ (HBSS++)
# (§2) Luminol-enhanced chemiluminescence assay was performed as described by Helfand et al. (17), and Haklar et al. (18) with some modifications. Briefly, 25 μL diluted whole blood (1:200 dilution in sterile HBSS^++) or 25 μL of PMNs (1×10^6) cells were incubated with 25 μL of serially diluted compounds with concentration ranges between 3.2-50 mg/mL. Tests were performed in white 96-well plates, which were incubated at 37° C. for 30 minutes in the thermostated chamber of the luminometer. Opsonized zymosan-A, 25 μL, followed by 25 μL luminol (7×10^−5M) along with HBSS^++ was added to each well to obtain a 100 μL volume/well. […] Chemiluminescence peaks were recorded with the Luminometer. Results were monitored as chemiluminescence relative light units (RLU) with peak and total integral values.
# [4] = tested on: isolated polymorphoneutrophils (PMNs); experiment: Luminol-enhanced chemiluminescence oxidative burst assay, isolated PMNs; format: cell-based, human
# Source text: as §1, §2
smiles,measurement,setting,value
"C[C@]12C=CC(=O)C=C1CC[C@@H]1[C@@H]2CC[C@@]2(C)[C@H]1CC[C@]2(C)O [Compound 1, dianabol, reference compound]",effect on T-cell proliferation,[1],did not show any significant effect
same,effect on IL-2 production,[2],did not show any significant effect
same,anticancer activity against NCI-H460,[3],showed anticancer activity
same,"TGI (μM), could not be determined",[3],ND (Values could not be determined indicates <50% inhibition of cell growth at maximum dose (100 μM) tested.)
"C[C@]12CCC(=O)C[C@@H]1CC[C@@H]1[C@@H]2CC[C@@]2(C)[C@H]1CC[C@]2(C)O [Compound 3, 17β-hydroxy-17α-methyl-5α-androstan-3-one]","effect on ROS production, whole blood phagocytes",whole blood phagocytes,did not result in any significant effect
same,"effect on ROS production, isolated neutrophils",[4],did not result in any significant effect
same,effect on T-cell proliferation,[1],moderate inhibitory activity
same,effect on IL-2 production,[2],moderate inhibitory activity
same,anticancer activity against NCI-H460,[3],non-active
same,growth inhibition of cancer cells at 100 μM,[3]; 100 μM,not able to inhibit considerable growth
same,"TGI (μM), could not be determined",[3],ND (Values could not be determined indicates <50% inhibition of cell growth at maximum dose (100 μM) tested.)
"C[C@]12C=CC(=O)C[C@@H]1CC[C@@H]1[C@@H]2CC[C@@]2(C)[C@H]1CC[C@]2(C)O [Compound 2, 17β-hydroxy-17α-methyl-5α-androst-1-en-3-one]","effect on ROS production, whole blood phagocytes",whole blood phagocytes,did not result in any significant effect
same,"effect on ROS production, isolated neutrophils",[4],did not result in any significant effect
same,anticancer activity against NCI-H460,[3],showed anticancer activity
